Source: publication PMC2584039 (Molecular Pain, 2008)

Assays:
[1] = test system: spinal nerve ligation induced mechanical hypersensitivity; conditions: rat, in vivo
[2] = test system: TRPA1; set-up: method as in Petrus et al. (2007); conditions: mouse; ref Petrus et al. (2007); cited from earlier work
[3] = target: T1, human TRPA1 (Homo sapiens, UniProt O75762); assay: cell-based
T1 construct: Full length human TRPA1 cDNA was purchased from Origene Technologies; host or cells: HEK-293 (Invitrogen Flp-In system, hygromycin B selection)
T1 sequence (O75762 whole entry): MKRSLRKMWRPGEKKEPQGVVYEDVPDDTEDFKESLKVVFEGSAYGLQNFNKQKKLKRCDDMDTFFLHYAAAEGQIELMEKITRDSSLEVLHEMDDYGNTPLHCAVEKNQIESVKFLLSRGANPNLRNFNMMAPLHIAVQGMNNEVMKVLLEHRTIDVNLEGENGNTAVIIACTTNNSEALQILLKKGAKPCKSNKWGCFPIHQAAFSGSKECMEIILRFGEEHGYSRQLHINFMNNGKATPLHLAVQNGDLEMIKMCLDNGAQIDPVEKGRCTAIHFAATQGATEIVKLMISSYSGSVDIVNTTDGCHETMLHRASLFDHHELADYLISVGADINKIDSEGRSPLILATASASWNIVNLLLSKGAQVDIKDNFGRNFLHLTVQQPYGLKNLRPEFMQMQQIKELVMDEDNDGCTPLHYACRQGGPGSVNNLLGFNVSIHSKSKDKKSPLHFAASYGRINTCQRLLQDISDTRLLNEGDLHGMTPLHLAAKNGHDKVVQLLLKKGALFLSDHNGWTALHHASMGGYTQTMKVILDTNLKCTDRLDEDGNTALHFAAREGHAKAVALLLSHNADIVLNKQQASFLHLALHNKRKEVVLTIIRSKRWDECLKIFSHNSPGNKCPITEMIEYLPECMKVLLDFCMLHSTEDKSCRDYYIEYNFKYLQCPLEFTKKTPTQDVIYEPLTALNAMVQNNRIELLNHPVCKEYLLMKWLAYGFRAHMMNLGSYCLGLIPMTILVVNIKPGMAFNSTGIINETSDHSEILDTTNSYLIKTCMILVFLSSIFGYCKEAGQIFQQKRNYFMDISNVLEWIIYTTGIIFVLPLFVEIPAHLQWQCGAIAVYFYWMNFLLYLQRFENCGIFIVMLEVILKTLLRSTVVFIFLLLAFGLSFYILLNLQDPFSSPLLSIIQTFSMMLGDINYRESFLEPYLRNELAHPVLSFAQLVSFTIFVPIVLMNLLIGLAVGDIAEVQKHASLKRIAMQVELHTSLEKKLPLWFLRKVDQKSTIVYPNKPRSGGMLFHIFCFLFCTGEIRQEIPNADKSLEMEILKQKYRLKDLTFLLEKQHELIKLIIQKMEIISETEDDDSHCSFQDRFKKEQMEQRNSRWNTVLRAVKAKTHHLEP

Compound: CC(C)C[C@H](CN)CC(=O)O [pregabalin]
- effect on SNL mechanical hypersensitivity vs vehicle [1]: significant attenuation
- percent reversal of SNL-induced mechanical hypersensitivity [1]: 56%

Compound: CC(=C\c1ccc(Cl)cc1)/C(C)=N/O [AP18]
- IC50 [2]: 4.5 µM

Compound: O=C/C=C/c1ccccc1 [cinnamaldehyde]
- EC50 [3]: 15.9 µM
